IC50 data for 28 molecules are collected here from US12577228B2, “Dihydrocyclopenta-isoquinoline-sulfonamide derivatives compounds” (UCB Biopharma SRL, priority 2019, dated 2026).

Molecules are shown by their SMILES. Counter-ions that a name gives are not always drawn.

For this experiment, the target named is T1, IgE-Tb / soluble IgE receptor FcεRIα with a Y131A mutation (Homo sapiens, UniProt P01854, N146Q/N252Q).
T1 construct: fused on or other part: Terbium chelate (LanthaScreen amine-reactive) on IgE-Fc; Alexa Fluor 488 hydrazide on the oxidised glycans of sFcεRIα; Both are labels and no part of the key
T1 sequence (P01854 104-427 N146Q/N252Q): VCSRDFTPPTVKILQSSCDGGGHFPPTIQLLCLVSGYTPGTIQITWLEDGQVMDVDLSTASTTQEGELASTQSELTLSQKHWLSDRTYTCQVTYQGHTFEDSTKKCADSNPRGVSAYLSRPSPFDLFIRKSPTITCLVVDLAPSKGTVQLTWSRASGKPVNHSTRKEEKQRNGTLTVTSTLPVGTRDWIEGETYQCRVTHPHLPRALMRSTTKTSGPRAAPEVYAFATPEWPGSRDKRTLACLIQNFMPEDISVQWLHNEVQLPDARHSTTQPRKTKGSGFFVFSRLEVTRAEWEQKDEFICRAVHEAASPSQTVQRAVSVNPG
T1 sequence (P12319 26-201 Y156A partner): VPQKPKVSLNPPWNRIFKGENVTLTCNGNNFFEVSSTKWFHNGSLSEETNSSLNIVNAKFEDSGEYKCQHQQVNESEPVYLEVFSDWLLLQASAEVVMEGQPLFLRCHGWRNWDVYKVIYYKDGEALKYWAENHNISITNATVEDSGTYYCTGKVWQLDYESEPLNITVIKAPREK
Briefly: in vitro FRET assay: binding of IgE-Tb to receptor FcεRIα-Y131A-AF488 and its inhibition by compounds. As to conditions: 5 nM IgE-Tb, 25 nM FcεRIα-Y131A-AF488, 2 hours at room temperature; read-out: FRET IC50 range.
One may read the IC50 as the concentration that gives 50% inhibition. Take `CC(C)(F)CNS(=O)(=O)c1c2c(cc3cnc(C4CC4)cc13)CC1CC21` (stereo not shown) [Example 107, 13-cyclopropyl-N-(2-fluoro-2-methylpropyl)-12-azatetracyclo[8.4.0.03,8.04,6]tetradeca-1 (10),2,8,11,13-pentaene-2-sulfonamide]: the IC50 was in the range of 100 to 2000 nM. For `Cc1nnc(-n2ccc(N[C@@H]3Cc4cc5cnc(C6CC6)cc5c(S(=O)(=O)NCC(C)(C)F)c4C3)cc2=O)o1` [Example 92, (7R)-3-cyclopropyl-N-(2-fluoro-2-methylpropyl)-7-[[1-(5-methyl-1,3,4-oxadiazol-2-yl)-2-oxopyridin-4-yl]amino]-7,8-dihydro-6H-cyclopenta[g]isoquinoline-5-sulfonamide] the value was 10 to 50 nM; for `CC(C)(F)CNS(=O)(=O)c1c2c(cc3cnc(C4CC4)cc13)CC(Nc1cncc(C#N)c1)C2` (stereo not shown) [Example 122, 7-[(5-cyanopyridin-3-yl)amino]-3-cyclopropyl-N-(2-fluoro-2-methylpropyl)-7,8-dihydro-6H-cyclopenta[g]isoquinoline-5-sulfonamide], 100 to 2000 nM. To `CC(C)(F)CNS(=O)(=O)c1c2c(cc3cnc(C4CC4)cc13)CC(c1ccno1)C2` (stereo not shown) [Example 79, 3-cyclopropyl-N-(2-fluoro-2-methylpropyl)-7-(1,2-oxazol-5-yl)-7,8-dihydro-6H-cyclopenta[g]isoquinoline-5-sulfonamide] belongs 100 to 2000 nM.

Regarding `CC(C)(C)OC(=O)c1ccc(N[C@@H]2Cc3cc4cnc(C5CC5)cc4c(S(=O)(=O)NC4CC(F)(F)C4)c3C2)cn1` [Example 85, tert-butyl 5-[[(7R)-3-cyclopropyl-5-[(3,3-difluorocyclobutyl)sulfamoyl]-7,8-dihydro-6H-cyclopenta[g]isoquinolin-7-yl]amino]pyridine-2-carboxylate], the IC50 fell in the range of 10 to 50 nM. To `Cn1cc2c(NC3Cc4cc5cnc(C6CC6)cc5c(S(=O)(=O)NCC5(O)COC5)c4C3)cncc2n1` (stereo not shown) [Example 14, 3-cyclopropyl-N-[(3-hydroxyoxetan-3-yl)methyl]-7-[(2-methylpyrazolo[3,4-c]pyridin-4-yl)amino]-7,8-dihydro-6H-cyclopenta[g]isoquinoline-5-sulfonamide] belongs 10 to 50 nM; to `CCOC(=O)c1ncn([C@H]2Cc3cc4cnc(C5CC5)cc4c(S(=O)(=O)NCC(C)(C)F)c3C2)c1N` [Example 8, ethyl 5-amino-1-[(7S)-3-cyclopropyl-5-[(2-fluoro-2-methylpropyl)sulfamoyl]-7,8-dihydro-6H-cyclopenta[g]isoquinolin-7-yl]imidazole-4-carboxylate], 100 to 2000 nM; to `CC(C)(F)CNS(=O)(=O)c1c2c(cc3cnc(C4CC4)cc13)CC(NC1=CC(=O)CCC1)C2` (stereo not shown) [Example 7, 3-cyclopropyl-N-(2-fluoro-2-methylpropyl)-7-[(3-oxocyclohexen-1-yl)amino]-7,8-dihydro-6H-cyclopenta[g]isoquinoline-5-sulfonamide], 50 to 100 nM. To `CC(C)(F)CNS(=O)(=O)c1c2c(cc3cnc(C4CC4)cc13)CC(Nc1cccnc1)C2` (stereo not shown) [Example 86, 3-cyclopropyl-N-(2-fluoro-2-methylpropyl)-7-(pyridin-3-ylamino)-7,8-dihydro-6H-cyclopenta[g]isoquinoline-5-sulfonamide] belongs 10 to 50 nM.

As to `Cn1ncc(NC2Cc3cc4cnc(C5CC5)cc4c(S(=O)(=O)NCC(C)(C)F)c3C2)cc1=O` (stereo not shown) [Example 140, 3-cyclopropyl-N-(2-fluoro-2-methylpropyl)-7-[(1-methyl-6-oxopyridazin-4-yl)amino]-7,8-dihydro-6H-cyclopenta[g]isoquinoline-5-sulfonamide], the half-maximal inhibitory concentration (IC50) lay in the range of 10 to 50 nM. To `CC(C)(F)CNS(=O)(=O)c1c2c(cc3cnc(C4CC4)cc13)CC(NC(=O)c1cccnc1)C2` (stereo not shown) [Example 6, N-[3-cyclopropyl-5-[(2-fluoro-2-methylpropyl)sulfamoyl]-7,8-dihydro-6H-cyclopenta[g]isoquinolin-7-yl]pyridine-3-carboxamide] belongs 50 to 100 nM. For `CC1(C)CC1NS(=O)(=O)c1c2c(cc3cnc(C4CC4)cc13)CC(C(=O)Nc1cccnc1)C2` (stereo not shown) [Example 81, 3-cyclopropyl-5-[(2,2-dimethylcyclopropyl)sulfamoyl]-N-pyridin-3-yl-7,8-dihydro-6H-cyclopenta[g]isoquinoline-7-carboxamide] the value was 100 to 2000 nM; for `CC(C)(F)CNS(=O)(=O)c1c2c(cc3cnc(C4CC4)cc13)C[C@@H](Nc1ccc(C(=O)O)nc1)C2` [Example 15, 5-[[(7R)-3-cyclopropyl-5-[(2-fluoro-2-methylpropyl)sulfamoyl]-7,8-dihydro-6H-cyclopenta[g]isoquinolin-7-yl]amino]pyridine-2-carboxylic acid], 10 to 50 nM; for `CC(C)(F)CNS(=O)(=O)c1c2c(cc3cnc(C4CC4)cc13)C[C@@H](Nc1ccc(F)nc1)C2` [Example 73, (7R)-3-cyclopropyl-N-(2-fluoro-2-methylpropyl)-7-[(6-fluoropyridin-3-yl)amino]-7,8-dihydro-6H-cyclopenta[g]isoquinoline-5-sulfonamide], 10 to 50 nM. For `CC(C)CNS(=O)(=O)c1c2c(cc3cnc(C4CC4)cc13)CC(Nc1ccc(C(=O)O)nc1)C2` (stereo not shown) [Example 88, 5-[[3-cyclopropyl-5-(isobutylsulfamoyl)-7,8-dihydro-6H-cyclopenta[g]isoquinolin-7-yl]amino]pyridine-2-carboxylic acid; hydrochloride] the value was 50 to 100 nM. `Cc1cc(Nc2nncn2C2Cc3cc4cnc(C5CC5)cc4c(S(=O)(=O)NCC(C)(C)F)c3C2)n(C)n1` (stereo not shown) [Example 57, 3-cyclopropyl-7-[3-[(2,5-dimethylpyrazol-3-yl)amino]-1,2,4-triazol-4-yl]-N-(2-fluoro-2-methylpropyl)-7,8-dihydro-6H-cyclopenta[g]isoquinoline-5-sulfonamide]: the IC50 lay within 100 to 2000 nM. In the case of `CC(C)(F)CNS(=O)(=O)c1c2c(cc3cnc(C4CC4)cc13)CC(Nc1cc[nH]c(=O)c1)C2` (stereo not shown) [Example 63, 3-cyclopropyl-N-(2-fluoro-2-methylpropyl)-7-[(2-oxo-1H-pyridin-4-yl)amino]-7,8-dihydro-6H-cyclopenta[g]isoquinoline-5-sulfonamide], the IC50 lay in the range of 10 to 50 nM. For `Cn1ncc(NC2Cc3cc4c(F)nc(C5CC5)cc4c(S(=O)(=O)NCC(C)(C)F)c3C2)cc1=O` (stereo not shown) [Example 29, 3-cyclopropyl-1-fluoro-N-(2-fluoro-2-methyl-propyl)-7-[(1-methyl-6-oxo-pyridazin-4-yl)amino]-7,8-dihydro-6H-cyclopenta[g]isoquinoline-5-sulfonamide] the value was 10 to 50 nM. To `CC(=O)NS(=O)(=O)c1ccc(N[C@@H]2Cc3cc4cnc(C5CC5)cc4c(S(=O)(=O)NCC(C)(C)F)c3C2)cn1` [Example 95, N-[5-[[(7R)-3-cyclopropyl-5-[(2-fluoro-2-methylpropyl)sulfamoyl]-7,8-dihydro-6H-cyclopenta[g]isoquinolin-7-yl]amino]pyridin-2-yl]sulfonylacetamide] belongs 50 to 100 nM; to `CC(C)CNS(=O)(=O)c1c2c(cc3cnc(C4CC4)cc13)CNC2` [Example 60, 7-cyclopropyl-N-(2-methylpropyl)-2,3-dihydro-1H-pyrrolo[3,4-g]isoquinoline-9-sulfonamide], 100 to 2000 nM. To `Cc1ccc(NC2Cc3cc4cnc(C5CC5)cc4c(S(=O)(=O)NCC(C)(C)O)c3C2)nn1` (stereo not shown) [Example 80, 3-cyclopropyl-N-(2-hydroxy-2-methylpropyl)-7-[(6-methylpyridazin-3-yl)amino]-7,8-dihydro-6H-cyclopenta[g]isoquinoline-5-sulfonamide] belongs 100 to 2000 nM; to `Cn1nnc(-c2ccc(N[C@@H]3Cc4cc5cnc(C6CC6)cc5c(S(=O)(=O)NCC(C)(C)F)c4C3)cc2)n1` [Example 125, (7R)-3-cyclopropyl-N-(2-fluoro-2-methylpropyl)-7-[4-(2-methyltetrazol-5-yl)anilino]-7,8-dihydro-6H-cyclopenta[g]isoquinoline-5-sulfonamide], 50 to 100 nM. In the case of `CC(C)(F)CNS(=O)(=O)c1c2c(cc3cnc(C4CC4)cc13)CC(Nc1cncnc1NCC1CC1)C2` (stereo not shown) [Example 19, 3-cyclopropyl-7-[[4-(cyclopropylmethylamino)pyrimidin-5-yl]amino]-N-(2-fluoro-2-methylpropyl)-7,8-dihydro-6H-cyclopenta[g]isoquinoline-5-sulfonamide], the IC50 was in the range of 10 to 50 nM. On to `Cn1nc(O)cc1NC1Cc2cc3cnc(C4CC4)cc3c(S(=O)(=O)NCC(C)(C)F)c2C1` (stereo not shown) [Example 112, 3-cyclopropyl-N-(2-fluoro-2-methylpropyl)-7-[(5-hydroxy-2-methylpyrazol-3-yl)amino]-7,8-dihydro-6H-cyclopenta[g]isoquinoline-5-sulfonamide], for which the IC50 lay in the range of 100 to 2000 nM. Turning to `Cc1nnc(NC2Cc3cc4cnc(C5CC5)cc4c(S(=O)(=O)NCC(C)(C)F)c3C2)o1` (stereo not shown) [Example 97, 3-cyclopropyl-N-(2-fluoro-2-methylpropyl)-7-[(5-methyl-1,3,4-oxadiazol-2-yl)amino]-7,8-dihydro-6H-cyclopenta[g]isoquinoline-5-sulfonamide], the IC50 was 100 to 2000 nM.

Take `Cc1nc(-c2ccc(N[C@@H]3Cc4cc5cnc(C6CC6)cc5c(S(=O)(=O)NCC(C)(C)F)c4C3)cn2)no1` [Example 31, (7R)-3-cyclopropyl-N-(2-fluoro-2-methylpropyl)-7-[[6-(5-methyl-1,2,4-oxadiazol-3-yl)pyridin-3-yl]amino]-7,8-dihydro-6H-cyclopenta[g]isoquinoline-5-sulfonamide]: the IC50 was 1 to 10 nM. On to `COc1ccc(NC2Cc3cc4cnc(C5CC5)cc4c(S(=O)(=O)NCC(C)(C)F)c3C2)nn1` (stereo not shown) [Example 28, 3-cyclopropyl-N-(2-fluoro-2-methylpropyl)-7-[(6-methoxypyridazin-3-yl)amino]-7,8-dihydro-6H-cyclopenta[g]isoquinoline-5-sulfonamide], for which the IC50 lay in the range of 10 to 50 nM. For `CC(C)CNS(=O)(=O)c1c2c(cc3cnc(C4CC4)cc13)CCC2O` (stereo not shown) [Example 48, 3-cyclopropyl-6-hydroxy-N-(2-methylpropyl)-7,8-dihydro-6H-cyclopenta[g]isoquinoline-5-sulfonamide] the value was 100 to 2000 nM.
